According to patent US9181234B2, “Antibacterial compounds” (priority 2010, dated 2015):
Converted amounts (≈) assume the structure as drawn.

How the values were obtained:
physchem = settings: kinetic from dmso stock
Procedure, shortened: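 DMSO doubling dilutions were diluted twenty-fold into 100 mM citrate (pH 4), PBS (pH 7.4) or carbonate-bicarbonate (pH 9). After 24 h equilibration at room temperature, absorbance was read at 620 nm. The reported value is the highest concentration without measurable precipitate.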

[1] = test system: Streptococcus pyogenes (Isolate ID ATCC 51339); assay: Antibacterial activity, MIC, S. pyogenes; format: cell-based; settings: Streptococcus pyogenes, ATCC51339, Gram positive strain; broth microdilution or agar dilution
Procedure, shortened: (§1)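 CLSI-guided dilution susceptibility testing (broth or agar) gave the MIC for each strain.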

[2] = test system: Enterococcus faecalis (Isolate ID ATCC 29212); assay: Antibacterial activity, MIC, E. faecalis; format: cell-based; settings: Enterococcus faecalis, ATCC29212; Gram positive strain; broth microdilution or agar dilution
Procedure, shortened: as §1

[3] = test system: Staphylococcus aureus (Isolate ID ATCC 29213); assay: Antibacterial activity, MIC, S. aureus; format: cell-based; settings: Staphylococcus aureus, ATCC29213, Gram positive strain; broth microdilution or agar dilution
Procedure, shortened: as §1

[4] = test system: Haemophilus influenzae (Isolate ID ATCC 49247); assay: Antibacterial activity, MIC, H. influenzae; format: cell-based; settings: Haemophilus influenzae, ATCC49247; Gram negative strain; broth microdilution or agar dilution
Procedure, shortened: as §1

[5] = pH 7.4, aqueous buffer, Solubility (pH 7.4)
[6] = pH 7.4, aqueous buffer, Solubility Range
[7] = pH 9, aqueous buffer, Max Solubility
[8] = pH 9, aqueous buffer, Solubility Range (maximum solubility)
[9] = pH 7.4, aqueous buffer, Max Solubility
[10] = pH 7.4, aqueous buffer, Solubility Range (maximum solubility)

Row | Compound | solubility at 24 h (physchem; [5]) | solubility at 24 h (physchem; [6]) | solubility at 24 h (physchem; [7]) | solubility at 24 h (physchem; [8]) | MIC [1] | MIC [2] | MIC [3] | MIC [4] | solubility at 24 h (physchem; [9]) | solubility at 24 h (physchem; [10]) | solubility at 24 h (physchem; pH 4, aqueous buffer, Max Solubility) | solubility at 24 h (physchem; pH 4, aqueous buffer, Solubility Range (maximum solubility))
1 | CCNC(=O)Nc1nc2cc(-c3cnc(N4CCC(C)(C(=O)O)CC4)nc3)cc(-c3nccnc3C)c2s1 [Compound 84] | 200 µg/mL (≈ 375 µM) | 12.5 to 400 µg/mL (≈ 23.5 to 751 µM) | ≥ 800 µg/mL | > 800 µg/mL | 0.25 to 1 µg/mL (≈ 0.469 to 1.88 µM) | ≤ 0.25 µg/mL | 1 to 16 µg/mL (≈ 1.88 to 30 µM) | 1 to 16 µg/mL (≈ 1.88 to 30 µM) |  |  |  | 
2 | CCNC(=O)Nc1nc2cc(-c3cnc(N4CCC(C)(C(=O)O)CC4)nc3)cc(-c3cc(C)c(F)cn3)c2s1 [Compound 85] | 200 µg/mL (≈ 364 µM) | 12.5 to 400 µg/mL (≈ 22.7 to 728 µM) | ≥ 800 µg/mL | > 800 µg/mL | ≤ 0.25 µg/mL | ≤ 0.25 µg/mL | ≤ 0.25 µg/mL | 0.25 to 1 µg/mL (≈ 0.455 to 1.82 µM) |  |  |  | 
3 | CCNC(=O)Nc1nc2cc(-c3cnc(N4CCC(C)(C(=O)O)CC4)nc3)cc(-c3nccnc3OC)c2s1 [Compound 86] | ≥ 800 µg/mL | > 800 µg/mL |  |  | ≤ 0.25 µg/mL | ≤ 0.25 µg/mL | ≤ 0.25 µg/mL | 1 to 16 µg/mL (≈ 1.82 to 29.2 µM) | ≥ 800 µg/mL | > 800 µg/mL |  | 
4 | CCNC(=O)Nc1nc2cc(-c3cnc(N4CCC(C)(C(=O)O)CC4)nc3)cc(C3CC3)c2s1 [Compound 87, 1-{5-[7-Cyclopropyl-2-(3-ethyl-ureido)-benzothiazol-5-yl]-pyrimidin-2-yl}-4-methyl-piperidine-4-carboxylic acid] | ≥ 800 µg/mL | > 800 µg/mL |  |  | 0.25 to 1 µg/mL (≈ 0.52 to 2.08 µM) | ≤ 0.25 µg/mL | 0.25 to 1 µg/mL (≈ 0.52 to 2.08 µM) | 1 to 16 µg/mL (≈ 2.08 to 33.3 µM) | ≥ 800 µg/mL | > 800 µg/mL |  | 
5 | CCNC(=O)Nc1nc2cc(-c3cnc(N4CCC(C)(C(=O)O)CC4)nc3)cc(-c3ccncc3)c2s1 [Compound 89] | ≥ 800 µg/mL | > 800 µg/mL |  |  | 0.25 to 1 µg/mL (≈ 0.483 to 1.93 µM) | ≤ 0.25 µg/mL | 0.25 to 1 µg/mL (≈ 0.483 to 1.93 µM) | 1 to 16 µg/mL (≈ 1.93 to 30.9 µM) | ≥ 800 µg/mL | > 800 µg/mL |  | 
6 | CCNC(=O)Nc1nc2cc(-c3cnc(N4CCC(C)(C(=O)O)CC4)nc3)cc(-c3nccc(OC)c3C#N)c2s1 [Compound 90] | 100 µg/mL (≈ 175 µM) | 12.5 to 400 µg/mL (≈ 21.8 to 699 µM) |  |  | ≤ 0.25 µg/mL | ≤ 0.25 µg/mL | ≤ 0.25 µg/mL | 0.25 to 1 µg/mL (≈ 0.437 to 1.75 µM) | 100 µg/mL (≈ 175 µM) | 12.5 to 400 µg/mL (≈ 21.8 to 699 µM) |  | 
7 | CCNC(=O)Nc1nc2cc(-c3cnc(N4CCC(C)(C(=O)O)CC4)nc3)cc(C(=O)N(C)CC)c2s1 [Compound 91, 1-[5-[2-(ethylcarbamoylamino)-7-[ethyl(methyl)carbamoyl]-1,3-benzothiazol-5-yl]pyrimidin-2-yl]-4-methyl-piperidine-4-carboxylic acid] | ≥ 800 µg/mL | > 800 µg/mL |  |  | > 16 µg/mL | 1 to 16 µg/mL (≈ 1.9 to 30.4 µM) | > 16 µg/mL | > 16 µg/mL | ≥ 800 µg/mL | > 800 µg/mL |  | 
8 | CCNC(=O)Nc1nc2cc(-c3cnc(N4CCC(C)(C(=O)O)CC4)nc3)cc(-c3cc(C)c(C#N)cn3)c2s1 [Compound 92] | 6.25 µg/mL (≈ 11.2 µM) | < 12.5 µg/mL |  |  | ≤ 0.25 µg/mL | ≤ 0.25 µg/mL | ≤ 0.25 µg/mL | 0.25 to 1 µg/mL (≈ 0.449 to 1.8 µM) |  |  | 12.5 µg/mL (≈ 22.5 µM) | 12.5 to 400 µg/mL (≈ 22.5 to 719 µM)
9 | CCNC(=O)Nc1nc2cc(-c3cnc(N4CCC(CC)(C(=O)O)CC4)nc3)cc(-c3cnccn3)c2s1 [Compound 99] | ≥ 800 µg/mL | > 800 µg/mL |  |  | ≤ 0.25 µg/mL | ≤ 0.25 µg/mL | ≤ 0.25 µg/mL | 1 to 16 µg/mL (≈ 1.88 to 30 µM) |  |  |  | 
10 | CCNC(=O)Nc1nc2cc(-c3cnc(N4CCC(CC)(C(=O)O)CC4)nc3)cc(-c3cc(C#N)ccn3)c2s1 [Compound 100] | 12.5 µg/mL (≈ 22.5 µM) | 12.5 to 400 µg/mL (≈ 22.5 to 719 µM) |  |  | ≤ 0.25 µg/mL | ≤ 0.25 µg/mL | ≤ 0.25 µg/mL | 1 to 16 µg/mL (≈ 1.8 to 28.7 µM) |  |  |  | 
11 | CCNC(=O)Nc1nc2cc(-c3cnc(N4CCC(CC)(C(=O)O)CC4)nc3)cc(-c3nccc(C)n3)c2s1 [Compound 101] | ≥ 800 µg/mL | > 800 µg/mL |  |  | ≤ 0.25 µg/mL | ≤ 0.25 µg/mL | ≤ 0.25 µg/mL | 1 to 16 µg/mL (≈ 1.83 to 29.3 µM) |  |  |  | 
12 | CCNC(=O)Nc1nc2cc(-c3cnc(N4CCC(CC)(C(=O)O)CC4)nc3)cc(-c3cc(OC)ccn3)c2s1 [Compound 102] | ≥ 800 µg/mL | > 800 µg/mL |  |  | ≤ 0.25 µg/mL | ≤ 0.25 µg/mL | ≤ 0.25 µg/mL | 1 to 16 µg/mL (≈ 1.78 to 28.5 µM) |  |  |  | 
13 | CCNC(=O)Nc1nc2cc(-c3cnc(N4CCC(CC)(C(=O)O)CC4)nc3)cc(-c3ncccc3C#N)c2s1 [Compound 104] | 12.5 µg/mL (≈ 22.5 µM) | 12.5 to 400 µg/mL (≈ 22.5 to 719 µM) |  |  | ≤ 0.25 µg/mL | ≤ 0.25 µg/mL | ≤ 0.25 µg/mL | 1 to 16 µg/mL (≈ 1.8 to 28.7 µM) |  |  |  | 
